Among the data in ChEMBL document CHEMBL5715936, “Selective Itk inhibitors block T-cell activation and murine lung inflammation” (Biochemistry, 2004) are inhibition, IC50 and Activity values, retold here.

Assay [1] deals with T1, Tyrosine-protein kinase ITK/TSK (Homo sapiens) (UniProt Q08881).
T1 sequence (whole entry): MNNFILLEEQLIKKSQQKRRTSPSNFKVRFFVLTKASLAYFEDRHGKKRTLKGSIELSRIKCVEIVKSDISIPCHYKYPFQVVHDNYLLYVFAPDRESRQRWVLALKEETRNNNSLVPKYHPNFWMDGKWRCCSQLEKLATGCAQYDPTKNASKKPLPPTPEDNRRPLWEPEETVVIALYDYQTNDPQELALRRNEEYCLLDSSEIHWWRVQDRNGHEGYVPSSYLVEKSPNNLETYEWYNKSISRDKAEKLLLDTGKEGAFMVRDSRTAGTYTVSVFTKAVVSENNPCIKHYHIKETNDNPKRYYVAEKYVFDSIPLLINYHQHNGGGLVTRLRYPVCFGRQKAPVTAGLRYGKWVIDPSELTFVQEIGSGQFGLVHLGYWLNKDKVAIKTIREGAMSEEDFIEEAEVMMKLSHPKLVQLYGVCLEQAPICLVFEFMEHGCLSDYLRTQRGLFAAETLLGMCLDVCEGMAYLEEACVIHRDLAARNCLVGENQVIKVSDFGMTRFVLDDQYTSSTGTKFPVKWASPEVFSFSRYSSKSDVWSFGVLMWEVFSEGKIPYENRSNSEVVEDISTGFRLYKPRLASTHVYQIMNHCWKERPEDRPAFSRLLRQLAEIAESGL
Kind of assay: Inhibition of Itk in human Jurkat T cells assessed as inhibition of tyrosine phosphorylation with 145 kDa molecular weight at 0.1 to 10 uM incubated for 20 mins in presence of CD3 antibody G19-4 by Western blotting analysis. Format: cell-based. Conditions: dose 0.1-10 µM.

For assay [2], the target named is Tyrosine-protein kinase SYK (Homo sapiens, UniProt P43405). As to the kind of experiment: Inhibition of Syk (unknown origin) using GST-SLP-76 as peptide substrate incubated for 10 mins in presence of [gamma-33P]ATP by scintillation counter assay.
The target of assay [3] is Tyrosine-protein kinase ITK/TSK (Mus musculus) (UniProt Q03526). Kind of assay: (§1) Inhibition of Itk in mouse EL4 cells assessed as inhibition of IL-2 secretion incubated for 16 hrs in presence of anti-CD3 antibody G19-4 by ELISA analysis. Format: cell-based.
In assay [4] the target is Tyrosine-protein kinase ITK/TSK (Mus musculus, UniProt Q03526). Described as §1. Format: cell-based.
The target in a further assay is Protein kinase C (PKC). As to the kind of experiment: Inhibition of PKC (unknown origin) using GST-SLP-76 as peptide substrate incubated for 10 mins in presence of [gamma-33P]ATP by scintillation counter assay. Format: protein assay, Homo sapiens.
In assay [5] the target is RAC-alpha serine/threonine-protein kinase (Homo sapiens, UniProt P31749). As to the kind of experiment: Inhibition of Akt1 (unknown origin) using GST-SLP-76 as peptide substrate incubated for 10 mins in presence of [gamma-33P]ATP by scintillation counter assay.
The subject of assay [6] is Mus musculus. Kind of assay: In vivo inhibition of IL-2 production in Balb/c mouse serum at >=50 mg/kg, sc administered for 15 mins in presence of anti-CD3 antibody by ELISA analysis. Format: functional, organism-based.
The target of assay [7] is Tyrosine-protein kinase BTK (Homo sapiens, UniProt Q06187). As to the kind of experiment: Inhibition of Btk (unknown origin) using GST-SLP-76 as peptide substrate incubated for 10 mins in presence of [gamma-33P]ATP by scintillation counter assay.
Assay [8] concerns the target Tyrosine-protein kinase Lck (Homo sapiens, UniProt P06239). Kind of assay: Inhibition of Lck (unknown origin) using GST-SLP-76 as peptide substrate incubated for 10 mins in presence of [gamma-33P]ATP by scintillation counter assay.
The target of assay [9] is Tyrosine-protein kinase Fyn (Homo sapiens, UniProt P06241). As to the kind of experiment: Inhibition of Fyn (unknown origin) using GST-SLP-76 as peptide substrate incubated for 10 mins in presence of [gamma-33P]ATP by scintillation counter assay.
Assay [10] addresses T2, Tyrosine-protein kinase ZAP-70 (Homo sapiens, UniProt P43403).
T2 sequence (P43403 whole entry): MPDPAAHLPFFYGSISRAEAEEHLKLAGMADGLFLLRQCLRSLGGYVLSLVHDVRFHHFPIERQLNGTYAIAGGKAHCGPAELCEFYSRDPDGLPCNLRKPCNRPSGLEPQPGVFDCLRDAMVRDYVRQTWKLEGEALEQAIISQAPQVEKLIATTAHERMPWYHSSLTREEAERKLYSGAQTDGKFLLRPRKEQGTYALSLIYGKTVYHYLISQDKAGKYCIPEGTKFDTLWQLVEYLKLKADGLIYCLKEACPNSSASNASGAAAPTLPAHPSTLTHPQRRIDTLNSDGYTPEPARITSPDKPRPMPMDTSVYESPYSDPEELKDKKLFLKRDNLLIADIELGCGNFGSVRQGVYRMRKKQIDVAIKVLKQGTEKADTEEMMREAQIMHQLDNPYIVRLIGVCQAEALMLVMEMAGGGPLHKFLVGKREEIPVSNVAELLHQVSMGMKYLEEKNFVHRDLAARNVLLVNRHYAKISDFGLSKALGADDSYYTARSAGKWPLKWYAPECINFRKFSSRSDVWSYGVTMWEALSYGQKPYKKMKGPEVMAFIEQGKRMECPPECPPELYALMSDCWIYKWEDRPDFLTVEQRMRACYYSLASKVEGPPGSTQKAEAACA
As to the kind of experiment: Inhibition of ZAP-70 (unknown origin) using GST-SLP-76 as peptide substrate incubated for 10 mins in presence of [gamma-33P]ATP by scintillation counter assay.

The target of assay [11] is T3, Tyrosine-protein kinase TXK (Homo sapiens, UniProt P42681).
T3 sequence (P42681 whole entry): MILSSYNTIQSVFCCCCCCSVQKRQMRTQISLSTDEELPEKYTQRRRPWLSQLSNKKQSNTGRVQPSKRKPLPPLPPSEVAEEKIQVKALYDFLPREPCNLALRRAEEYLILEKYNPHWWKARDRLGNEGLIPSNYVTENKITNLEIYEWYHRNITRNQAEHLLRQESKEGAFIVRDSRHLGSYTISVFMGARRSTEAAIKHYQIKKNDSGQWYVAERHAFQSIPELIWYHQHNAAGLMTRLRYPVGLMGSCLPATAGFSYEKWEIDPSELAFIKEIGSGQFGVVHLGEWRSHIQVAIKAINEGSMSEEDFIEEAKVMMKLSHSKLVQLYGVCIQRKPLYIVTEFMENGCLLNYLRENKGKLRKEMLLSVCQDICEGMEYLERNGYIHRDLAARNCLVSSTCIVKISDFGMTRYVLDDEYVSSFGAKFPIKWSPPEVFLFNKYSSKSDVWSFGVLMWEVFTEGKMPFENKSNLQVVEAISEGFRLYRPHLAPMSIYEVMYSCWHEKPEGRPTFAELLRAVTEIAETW
Kind of assay: Inhibition of Txk (unknown origin) using GST-SLP-76 as peptide substrate incubated for 10 mins in presence of [gamma-33P]ATP by scintillation counter assay.

Assay [12] relates to Mus musculus. Kind of assay: Anti-inflammatory activity against ovalbumin induced Balb/c mouse bronchoalveolar lavage assessed as reduction in eosinophil infiltration administered twice daily for 3 days by microscopic analysis. Format: functional, organism-based. Conditions: dose 5-25 mg/kg, route sc, time 3.0 day.
The subject of assay [13] is Mus musculus. As to the kind of experiment: Anti-inflammatory activity against ovalbumin induced Balb/c mouse bronchoalveolar lavage assessed as reduction in total cell infiltration administered twice daily for 3 days by microscopic analysis. Format: functional, organism-based. Conditions: dose 5-25 mg/kg, route sc, time 3.0 day.

Calls of active or inactive are those of the source. The calls are words filed in the database; no cut-off is given here.

Chain of RAC-alpha serine/threonine-protein kinase (P31749 whole entry): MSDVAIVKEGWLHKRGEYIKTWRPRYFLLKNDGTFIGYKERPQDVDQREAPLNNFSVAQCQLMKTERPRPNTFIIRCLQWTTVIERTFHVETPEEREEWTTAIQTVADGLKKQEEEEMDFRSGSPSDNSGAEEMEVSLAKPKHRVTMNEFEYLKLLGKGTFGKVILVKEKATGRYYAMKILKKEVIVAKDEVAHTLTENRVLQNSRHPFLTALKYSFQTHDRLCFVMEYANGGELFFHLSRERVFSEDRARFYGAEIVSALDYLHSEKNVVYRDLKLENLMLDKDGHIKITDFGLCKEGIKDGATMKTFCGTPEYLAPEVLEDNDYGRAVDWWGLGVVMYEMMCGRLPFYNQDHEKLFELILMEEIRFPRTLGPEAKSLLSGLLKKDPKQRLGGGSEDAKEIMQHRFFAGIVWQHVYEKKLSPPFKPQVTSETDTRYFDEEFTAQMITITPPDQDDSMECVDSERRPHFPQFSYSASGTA
Chain of Tyrosine-protein kinase Lck (P06239 whole entry): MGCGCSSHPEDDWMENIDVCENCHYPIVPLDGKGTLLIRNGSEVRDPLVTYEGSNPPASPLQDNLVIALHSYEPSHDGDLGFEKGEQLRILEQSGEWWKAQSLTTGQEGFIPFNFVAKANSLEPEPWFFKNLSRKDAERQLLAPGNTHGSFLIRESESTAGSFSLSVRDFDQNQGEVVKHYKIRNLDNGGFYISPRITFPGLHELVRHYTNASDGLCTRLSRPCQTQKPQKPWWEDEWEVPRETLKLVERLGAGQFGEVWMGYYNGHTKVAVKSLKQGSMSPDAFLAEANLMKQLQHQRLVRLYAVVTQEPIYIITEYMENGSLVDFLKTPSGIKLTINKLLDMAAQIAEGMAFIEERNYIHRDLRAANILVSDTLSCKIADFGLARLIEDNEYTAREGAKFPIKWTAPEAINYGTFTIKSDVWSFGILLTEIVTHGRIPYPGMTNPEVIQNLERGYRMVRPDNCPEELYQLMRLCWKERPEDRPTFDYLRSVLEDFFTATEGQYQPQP
Chain of Tyrosine-protein kinase Fyn (P06241 whole entry): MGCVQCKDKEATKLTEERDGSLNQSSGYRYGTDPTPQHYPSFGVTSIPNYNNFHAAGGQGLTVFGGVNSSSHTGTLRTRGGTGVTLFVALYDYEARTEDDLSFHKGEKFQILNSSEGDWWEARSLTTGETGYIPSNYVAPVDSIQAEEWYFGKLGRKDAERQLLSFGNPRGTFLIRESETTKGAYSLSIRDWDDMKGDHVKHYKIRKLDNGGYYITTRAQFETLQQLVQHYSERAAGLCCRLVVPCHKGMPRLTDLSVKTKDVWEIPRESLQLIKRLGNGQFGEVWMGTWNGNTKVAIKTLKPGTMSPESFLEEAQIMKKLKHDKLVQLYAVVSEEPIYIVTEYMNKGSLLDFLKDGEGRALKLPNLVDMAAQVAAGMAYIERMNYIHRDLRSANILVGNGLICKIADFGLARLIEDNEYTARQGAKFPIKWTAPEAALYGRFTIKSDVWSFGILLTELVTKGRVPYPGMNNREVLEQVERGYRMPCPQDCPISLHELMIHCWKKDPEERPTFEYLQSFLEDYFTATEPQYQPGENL
Chain of Tyrosine-protein kinase BTK (Q06187 whole entry): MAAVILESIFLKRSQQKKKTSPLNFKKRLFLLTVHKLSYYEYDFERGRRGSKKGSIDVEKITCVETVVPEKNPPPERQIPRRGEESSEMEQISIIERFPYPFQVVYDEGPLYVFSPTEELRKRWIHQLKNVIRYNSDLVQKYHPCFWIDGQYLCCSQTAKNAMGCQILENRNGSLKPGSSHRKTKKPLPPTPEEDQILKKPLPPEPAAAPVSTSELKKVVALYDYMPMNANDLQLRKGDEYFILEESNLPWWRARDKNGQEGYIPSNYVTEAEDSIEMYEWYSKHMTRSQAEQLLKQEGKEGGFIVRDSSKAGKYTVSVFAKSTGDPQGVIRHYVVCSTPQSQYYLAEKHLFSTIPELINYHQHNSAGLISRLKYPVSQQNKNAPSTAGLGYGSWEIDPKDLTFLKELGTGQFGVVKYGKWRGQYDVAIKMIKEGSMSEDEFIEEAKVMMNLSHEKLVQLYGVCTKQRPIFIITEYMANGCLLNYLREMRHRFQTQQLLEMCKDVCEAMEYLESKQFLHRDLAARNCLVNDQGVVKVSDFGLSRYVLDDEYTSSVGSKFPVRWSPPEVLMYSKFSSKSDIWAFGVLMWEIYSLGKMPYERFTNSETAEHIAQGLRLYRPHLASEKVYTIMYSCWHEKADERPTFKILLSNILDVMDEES
Chain of Tyrosine-protein kinase ITK/TSK (Q03526 whole entry): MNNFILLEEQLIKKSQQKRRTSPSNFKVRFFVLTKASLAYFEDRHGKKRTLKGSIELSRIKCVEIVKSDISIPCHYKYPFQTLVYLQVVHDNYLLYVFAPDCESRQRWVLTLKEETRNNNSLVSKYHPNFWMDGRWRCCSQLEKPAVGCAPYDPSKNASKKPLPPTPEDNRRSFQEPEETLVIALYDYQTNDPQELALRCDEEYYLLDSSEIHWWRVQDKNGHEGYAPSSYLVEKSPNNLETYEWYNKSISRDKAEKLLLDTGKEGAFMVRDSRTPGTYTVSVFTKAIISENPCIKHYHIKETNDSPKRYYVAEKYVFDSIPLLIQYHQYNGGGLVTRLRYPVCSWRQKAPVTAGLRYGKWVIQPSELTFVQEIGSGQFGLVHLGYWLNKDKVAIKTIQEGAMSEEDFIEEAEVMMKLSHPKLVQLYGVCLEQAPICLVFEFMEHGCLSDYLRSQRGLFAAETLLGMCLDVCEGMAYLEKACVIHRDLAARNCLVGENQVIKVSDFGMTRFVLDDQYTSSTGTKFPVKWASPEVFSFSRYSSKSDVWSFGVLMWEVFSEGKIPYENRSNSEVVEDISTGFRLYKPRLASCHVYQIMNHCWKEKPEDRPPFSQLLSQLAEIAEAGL
Chain of Tyrosine-protein kinase ITK/TSK (Mus musculus) (Q03526 whole entry): as above

As to `CC(=O)N1CCN(C(=O)c2cc(CSc3cnc(NC(=O)c4ccc(CNC(C)C(C)(C)C)cc4)s3)cc(C)c2C)CC1` (configuration not stated), the inhibition result (in assay [1]; in the assay with Mus musculus [6]) was “Active” in each case. Moreover, the IC50 was greater than 50 µM in [2]; 0.25 µM in assay [4]; 21 µM at Protein kinase C (PKC); greater than 50 µM in assay [5]; greater than 50 µM in [7]; 27 µM in assay [8]. Further, the results for the IC50 in [9], in assay [10] and in assay [11] were 8.6 µM, greater than 50 µM and greater than 50 µM, respectively. In assay [3], the inhibition entry was “Dose-Dependent Effect”.
Take `COc1cc(C)c(Sc2cnc(NC(=O)c3ccc(CNC(C)C(C)(C)C)cc3)s2)cc1C(=O)N1CCN(C(C)=O)CC1` (configuration not stated): in assay [1], the inhibition entry is “Active”. For the same molecule, the IC50 in [2] is greater than 50 µM; in [5], greater than 50 µM; in [7], 4.1 µM; in [8], 2.4 µM; in [9], 1.1 µM; in assay [10] it was greater than 50 µM. In addition, the IC50 in assay [11] turned out to be 11 µM. The Activity entry in the assay with Mus musculus [12] and in the assay with Mus musculus [13] was “Dose-Dependent Effect” throughout.
